From patent US8530519B2, “Method for promoting upper gastrointestinal bicarbonate secretion” (Sucampo AG, priority 2006, dated 2013)

Assays:
[1] = tested on: PG receptors such as EP and FP receptors; details: Journal of Ocular Pharmacology and Therapeutics 17(5), 433-441, 2001; cited from earlier work
male Wistar rats = experiment: Effect on bicarbonate secretion into bile in rats after oral dosing; format: in vivo, rat
Procedure: The effect of Compound A (13,14-dihydro-15-keto-16,16-difluoro-18(S)-methyl-PGE1) on Gastrointestinal bicarbonate secretion was studied.
Seven weeks old male Wistar rats were used in this study. Compound A at a dose of 100 μg/kg was administered orally to the animals three times daily for 7 days. Control animals received an equal volume of the vehicle (distilled water containing 0.01% polysorbate 80 and 0.5% ethanol). On the next morning of the final administration (about 17 hours after the final administration), a polyethylene catheter (PE10, Becton Dickinson and Company) was inserted into the common bile duct of the animal under ether anesthesia. The animals were placed into a Borrmann's cage individually and allowed to recover from the anesthesia for 1 hour. Bile was collected for 1 hour between 1 and 2 hours after inserting the catheter. The amount of bicarbonate (HCO3^−) in the bile was measured with an automated pH/blood gas analyzer (model 170, Ciba Corning Diagnostics Corp.).

Compound | affinity for PG receptors such as EP and FP receptors [1] | amount of bicarbonate secreted into the bile compared with the control group (male Wistar rats; 100 μg/kg orally three times daily for 7 days, Wistar rats) | Bicarbonate secretion Mean ± S.E. (male Wistar rats; 100 μg/kg p.o., TID for 7 days, bile collected for 1 hour, about 17 hours after the final administration, n=7, *p < 0.05 compared with control group (control 10.16 ± 0.81))
CCCCCCCC(=O)CC[C@@H]1[C@@H](C/C=C\CCCC(=O)OC(C)C)[C@@H](O)C[C@H]1O [unoprostone isopropyl] | does not have affinity | – | –
CC[C@H](C)CC(F)(F)C(=O)CC[C@H]1[C@H](O)CC(=O)[C@@H]1CCCCCCC(=O)O [Compound A, 13,14-dihydro-15-keto-16,16-difluoro-18(S)-methyl-PGE1] | – | increased significantly | 13.33 ± 1.00* μmol/hr/100 g body weight
